Entries after “also recorded” stand apart in the source; their conditions may differ. Where two headings read alike, the source gives them in different places.

The subject of assay [1] is stem cell-derived myoblasts. The conditions noted are these: for myotube morphology (visual) versus control cultures / production of myotubes with mature features (summary of FIGS. 10-18): 5 days; for production of myotubes with mature features (summary of FIGS. 10-18): different doses in Myotube Medium. As for the experimental part:
For screening, frozen satellite-like cells, prepared as described in Example 1, were thawed in a water bath at 37° C., resuspended in 3 mL of warm Myoblast Medium (Genea Biocells) and centrifuged at 400×g for 4 min. The supernatant was removed and the cell pellet was resuspended in 1 mL of medium for cell count. Cells were seeded at a density of 5,000 cells/cm^2 in collagen I-coated plastic flasks (Biocoat, BD Bioscience) and incubated at 5% CO2, 37° C. Every other day the culture medium was exchanged until cells reached a confluency of 80%, then cells were trypsinized, counted and seeded in collagen-coated 96-well plate (Biocoat) at density of 30,000 cells/cm^2 in Myoblast Medium using an automated liquid handling system (Fluent, Tecan Trading AG, Switzerland). Cells were incubated at 5% CO2, 37° C. and the medium was changed every other day until cells reached a confluence of 80%. The medium was exchanged for Myotube Medium (Genea Biocells) containing the test compounds. No further media changes were performed. In general, 3 to 6 concentrations were tested ranging from 3 μM to 1 nM; one plate per dilution was used. Media and DMSO control wells were placed randomly. No media changes were performed at this stage. After five days of myotube differentiation in the presence of compounds, cells were fixed with 10% formalin (Sigma) for 15 minutes at room temperature and washed once with phosphate-buffered saline (PBS). Next, cells were stained with an antibody specific for myosin heavy chain (Developmental Studies of Hybridoma Bank, University of Iowa, Iowa City; anti mouse A4.1519; dilution 1:1000) in PBS solution containing 5% bovine serum albumin (BSA, Sigma) and 0.3% Triton-X (Sigma) and incubated for 1 hour at room temperature. The cells were washed once with PBS and then incubated for 1 hour with a second antibody, Alexa Fluor 488-conjugated goat anti-mouse IgG (Invitrogen, 1:1000), and counterstained for nuclei with Hoechst 33342 (Molecular probes 1:5000) in a PBS solution containing 5% BSA and 0.3% Triton-X. Cells were washed with PBS prior microscopic analysis. Cells were imaged using an IN Cell Analyzer 6000 (GE-Healthcare) high content analysis system. Developer Toolbox v1.9.3 was utilized for image analysis to determine the number of nuclei, and the number of nuclei within MHC-positive myotubes. To evaluate the effect of compounds in either decrease or increase these measures untreated controls were set as the baseline.
Myoblasts were prepared or frozen myoblasts were thawed as described in Example 4. Once cultures reached confluency the medium was changed to Myotube Medium supplemented with 0.2, 0.5 or 1 μM CHIR-124 (Chk1 inhibitor). The cultures were left in an incubator at 37° C. and 5% CO2 for 5 days. […] Cells were fixed with 10% formalin (Sigma) for 15 minutes at room temperature and washed once with phosphate-buffered saline (PBS). Next, cells were stained for with antibodies specific for myosin heavy chain (Developmental Studies of Hybridoma Bank, University of Iowa, Iowa City; anti mouse A4.1519; dilution 1:1000) and MyoG (Santa Cruz, anti-rabbit; dilution 1:500) in PBS solution containing 5% bovine serum albumin (BSA, Sigma) and 0.3% Triton-X (Sigma) and incubated for 1 hour at room temperature. The cells were washed once with PBS and then incubated for 1 hour with a second antibody, Alexa Fluor 488-conjugated goat anti-mouse IgG and Alexa Fluor 647-conjugated anti-rabbit (both Invitrogen, 1:1000), and counterstained for nuclei with Hoechst 33342 (Molecular probes 1:5000) in a PBS solution containing 5% BSA and 0.3% Triton-X. Cells were washed with PBS prior to microscopic analysis. Cells were imaged using an IN Cell Analyzer 6000 (GE-Healthcare) high content analysis system.

The subject of assay [2] is myoblasts from non-affected and genetic disease-affected hESC cell lines. Description: Myotube formation in disease-affected and non-affected hESC-derived myoblasts with or without CHIR-124. As to conditions: 0.5 μM CHIR-124, three days in Myotube Medium, all cell lines (unaffected, Huntington's, DM1, DM2, SMA, FSH, DMD). Type of assay: cell-based, human. The protocol:
Myoblasts prepared via the method of Example 4 from two non-affected hESC cell lines (Genea002 and Genes019) and six verified genetic disease-affected cell lines (Genea020, Genea066, Gen103, Gen158, Gen049 and Gen159, described in Table 6 below) were thawed in Genea Biocells Myoblast Medium in 96-well microtiter plates at 3.0×10^4 cells/cm2 and incubated at 10% CO2, 37° C. Genea020 was derived from an embryo affected with Huntington's disease (48CAG repeat expansion in the Huntingtin gene). Genea066 was derived from an embryo affected with Myotonic Dystrophy type II. Genea103 was derived from an embryo affected with Spinal Muscular Atrophy. Genea158 was derived from an embryo affected with Myotonic Dystrophy type I. Genea049 was derived from an embryo affected with FSH Muscular Dystrophy. Genea159 was derived from an embryo affected with Duchenne muscular dystrophy. All hESC cell lines were derived according to approved ethical protocols from donated embryos. Once cells (myoblasts) were confluent (approximately on day 3) media was changed for Genea Biocells Myotube Medium, either alone or with 0.5 μM CHIR-124 (CHIR). […] Images were analyzed with IN Cell Developer Toolbox software (GE Healthcare). […] The ratio between area of MHC and nuclei (um2) was calculated by measuring the area per field divided by the number of nuclei within that field.

Assay [3] deals with myosin heavy chains (MHC) in Genea015 myoblast-derived myotubes. Description: Western blot analysis of myosin heavy chain types in myotubes. Type of assay: cell-based, human. As for the experimental part:
Genea015 (a disease-unaffected hESC cell line) myoblasts prepared by the method of Example 4 were thawed and seeded at 30,000 cells/cm^2 in Genea Biocells Myoblast Medium and incubated at 37° C., 5% CO2 until confluent (approximately 2 days). Then media was changed for Genea Biocells Myotube Medium either alone or with […] CHIR-124. Cell lysates for protein analysis were collected 5 days after treatment with CHIR-124 and quantified by BCA assay (ThermoFisher). Western blotting (Wes, Protein Simple) was performed to analyze the expression of myosin heavy chains (MHC) that are expressed during development and maturation of myotubes (total MHC, or total myosin heavy chain; eMHC, or embryonic myosin heavy chain; fMHC, or foetal myosin heavy chain; pMHC, or perinatal myosin heavy chain; and fast MHC, or fast myosin heavy chain, the most mature MHC found in myotubes). MHC expression was normalized to Vinculin for quantification.
For orientation: A western blot detects proteins with antibodies after separation by electrophoresis.

For assay [4], the system named is Duchenne Muscular Dystrophy (DMD). The assay can be described thus: Treatment of a Duchenne Muscular Dystrophy patient with a checkpoint inhibitor. The assay is classed as in vivo, human. The conditions noted are these: child with DMD. As for the experimental part: A child diagnosed with Duchenne Muscular Dystrophy (DMD) is seen in a clinic for weakness in their calves and thighs.
A child diagnosed with Duchenne Muscular Dystrophy (DMD) is seen in a clinic for weakness in their calves and thighs. To treat the muscle weakness, the patient is administered 100 mg once daily of CHIR-124 or 50-75 mg twice daily of CHIR-124 for two months. At the initial appointment, skin fibroblasts are obtained from the patient. The fibroblasts are subsequently used to produce induced pluripotent stem cells (iPSCs), which are then genetically modified to remove a mutation associated with DMD. The iPSCs are then differentiated into satellite cells in vitro; and the satellite cells, in turn, are differentiated into myoblasts in vitro. The differentiated myoblasts are then administered in […] doses to the patient's thighs and calves once a week during the two month period.

Where [5] appears, read: 0.5 μM CHIR-124, 5 days, Genea015.

Take `CO[C@H]1C[C@@H]2CC[C@@H](C)[C@@](O)(O2)C(=O)C(=O)N2CCCC[C@H]2C(=O)O[C@H]([C@H](C)C[C@@H]2CC[C@@H](O)[C@H](OC)C2)CC(=O)[C@H](C)/C=C(\C)[C@@H](O)[C@@H](OC)C(=O)[C@H](C)C[C@H](C)/C=C/C=C/C=C/1C` [rapamycin]: the “myotube morphology (visual) versus control cultures” value in assay [1] (0.1, 0.3 or 1 μM) was “formed more and longer and thicker myotubes than control cultures”. Besides, the “production of myotubes with mature features (summary of FIGS. 10-18)” value (shortened to “production of myotubes”) in assay [1] is reported as “produce myotubes with mature features”.
As to `CC(C)c1noc(N2CCC(COc3ccc(-c4ccc(S(C)(=O)=O)cc4)nc3)CC2)n1` [GSK1292263], in assay [1] (0.1, 0.3 or 1 M), the “myotube morphology (visual) versus control cultures” value is “formed longer and thicker myotubes than control cultures”. The “production of myotubes” value in assay [1] was “produce myotubes with mature features”.
In the case of `Cn1cnc2c(F)c(Nc3ccc(Br)cc3F)c(C(=O)NOCCO)cc21` [MEK162, binimetinib], the “myotube morphology (visual) versus control cultures” value in assay [1] (0.1, 0.3 or 1 μM) is “formed more and longer and thicker myotubes than control cultures”. Moreover, the “production of myotubes” value in assay [1] is listed as “produce myotubes with mature features”.
With talazoparib, the “myotube morphology (visual) versus control cultures” value in assay [1] (0.1, 0.3 or 1 μM Talazoparib) is “formed more and longer myotubes than control cultures”. Moreover, the “production of myotubes” value in assay [1] is “produce myotubes with mature features”.
On to `CC[C@@H]1C(=O)OC[C@@H]1Cc1cncn1C` [pilocarpine], for which the “myotube morphology (visual) versus control cultures” value in assay [1] (0.1, 03 or 1 μM pilocarpine) is “formed longer and thicker myotubes than control cultures”. Besides, the “production of myotubes” value in assay [1] is “produce myotubes with mature features”.
As for `CN1[C@@H]2CC[C@H]1C[C@@H](OC(=O)C(CO)c1ccccc1)C2` (some centres unmarked) [atropine], the “myotube morphology (visual) versus control cultures” value in assay [1] (0.2, 0.5 or 1 μM atropine) is “formed longer and thicker myotubes than control cultures”. In addition, the “number of myotubes observed” value in assay [1] (cultures incubated with atropine) is “overall fewer myotubes were observed”. Besides, in assay [1], the “production of myotubes” value is recorded as “produce myotubes with mature features”.
Turning to `CNC(=O)c1cc(Oc2ccc(NC(=O)Nc3ccc(Cl)c(C(F)(F)F)c3)cc2)ccn1` [sorafenib], the “myotube morphology (visual) versus control cultures” value in assay [1] (0.1, 0.3 or 1 μM) is “formed more and longer and thicker myotubes than control cultures”. Besides, the “production of myotubes” value in assay [1] is reported as “produce myotubes with mature features”.
Turning to `COc1ccncc1C(=O)NC(=O)Nc1ccc(-c2ccccc2)c(C(F)(F)F)c1` [TC-G 1006], the “myotube morphology (visual) versus control cultures” value in assay [1] (0.1, 0.3 or 1 M) was “formed longer and thicker myotubes than control cultures”. In addition, the “production of myotubes” value in assay [1] is “produce myotubes with mature features”.
As to `O=c1[nH]c2ccc(Cl)cc2c(NC2CN3CCC2CC3)c1-c1nc2ccccc2[nH]1` (centres unmarked) [CHIR-124], the “myotube morphology (visual)” value in assay [1] (0.2 μM, 0.5 μM, or 1 μM CHIR-124, 5 days) is given as “formed thick, large myotubes”. Moreover, the “number of myotubes observed” value in assay [1] (1 μM CHIR-124, 5 days) was “overall fewer myotubes were observed”. For the same molecule, the “larger average myotube diameter compared to myotubes formed in the absence of CHIR-124” value in assay [1] (0.2 or 0.5 μM CHIR-124, 5 days) is recorded as > 80%. Besides, the “average number of nuclei per myotube” value in assay [1] (0.2 or 0.5 μM CHIR-124, 5 days, 2 without CHIR-124) was “about 4”. For the same molecule, in assay [1] (CHIR-124, 5 days), the “mean area of myotubes (FIG. 10D, lower panel)” value is on record as “Increases”; the “myotube area (FIG. 10C, lower panel)” value is listed as “Increases”; the “number of cells with larger myotube area (FIG. 10D, upper panel)” value is “Increases”; the “number of cells with more than one nucleus (FIG. 10B, lower panel)” value is recorded as “Increases”. Also, the “production of myotubes” value in assay [1] is given as “produce myotubes with mature features”. In assay [1] (exposed to CHIR-124, untreated controls few cells exceeding 10-12 nuclei), the “nuclei contained in many myotubes” value is “more than 30”. The “myotube formation as MHC staining area normalized to cell number (nuclei)” value in assay [2] is given as “improved myotube formation; also recorded: improvements in differentiation”. The “myotube formation as MHC staining area normalized to cell number (nuclei)” value in assay [2] (listed as CHIR124) was “higher”. In addition, in assay [3] (setting [5]), the “expression of fast MHC (fast myosin heavy chain)” value is listed as “increases in expression” and the “expression of total MHC normalized to Vinculin” value is reported as “increases expression”. Moreover, in assay [3] (0.5 M CHIR-124, 5 days, Genea015), the “expression of pMHC (perinatal myosin heavy chain)” value is on record as “increases in expression”. Also, the “expression of the most mature forms of MHC (FIG. 20)” value in assay [3] (in the presence of CHIR-124) is listed as “increased expression”. Also, the “symptoms of muscle weakness” value in assay [4] (100 mg once daily or 50-75 mg twice daily for two months) is reported as “symptoms of muscle weakness improve”. For the same molecule, the muscle tone entry in assay [4] (CHIR-124 for two months combined with genetically modified iPSC-derived myoblasts once a week) was “improved muscle tone”.

These data come from patent US11376257B2, “Generation of muscle lineage cells and therapeutic uses thereof” (GENEA BIOCELLS USA (HOLDINGS), INC., priority 2016, dated 2022).
